Test results from patent US9695155B2, “Herbicidal substituted pyrimidinyloxy benzene compounds” (E. I. DU PONT DE NEMOURS AND COMPANY, priority 2013, dated 2017).

Columns and labels:
barnyardgrass [1] = assay: Test B flooded paddy test; type: in vivo, Echinochloa crus-galli; details: Echinochloa crus-galli; Flood, 250 g ai/ha; 0 to 100 scale where 0 is no effect and 100 is complete control; read-out: Plant response rating, Barnyardgrass
In short: (§1)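 Evaluation is visual, against untreated controls, 13 to 15 days after treatment. Before treatment, plants reached the 2-leaf stage; pots were then flooded 3 cm deep, compound was added to the water, and that level was maintained. Ratings run 0 to 100, with 100 meaning complete control.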

chickweed = assay: Test C postemergence; type: in vivo, Stellaria media; details: Stellaria media, post-emergence
In short: (§2)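 Plants were kept under greenhouse conditions for 13–15 days following spray. Pre-emergent application went to soil (loam–sand), post-emergent to foliage at 1–4 leaves. Evaluation: visual, percent control against untreated checks.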

sedge, umbrella = assay: Test B flooded paddy test; type: in vivo, Cyperus difformis; details: Cyperus difformis, Flood, 250 g ai/ha; 0 to 100 scale where 0 is no effect and 100 is complete control; read-out: Plant response rating, Sedge, Umbrella
In short: as §1

barnyardgrass [2] = assay: Test A preemergence; type: in vivo, Echinochloa crus-galli; details: Echinochloa crus-galli, pre-emergence, 240 h
In short: (§3)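 Visual injury scored 0–100 (100 = complete control) against untreated controls about 10 days after treatment in a greenhouse. Test chemicals, formulated with surfactant in non-phytotoxic solvent, were sprayed on soil preemergence or on 2-10 cm, one- to two-leaf plants postemergence.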

morningglory = assay: Test C postemergence; type: in vivo, Ipomoea coccinea; details: Ipomoea, post-emergence
In short: as §2

giant foxtail = assay: Test C postemergence; type: in vivo, Setaria faberii; details: Setaria faberi, post-emergence
In short: as §2

wild oat = assay: Test C postemergence; type: in vivo, Avena fatua; details: Avena fatua, post-emergence
In short: as §2

rice = assay: Test B flooded paddy test; type: in vivo, Oryza sativa; details: Oryza sativa; Flood, 250 g ai/ha; 0 to 100 scale where 0 is no effect and 100 is complete control; read-out: Plant response rating, Rice
In short: as §1

yellow nutsedge = assay: Test C postemergence; type: in vivo, Cyperus esculentus; details: Cyperus, post-emergence
In short: as §2

large (Lg) crabgrass [3] = assay: Test A preemergence; type: in vivo, Digitaria sanguinalis; details: Digitaria sanguinalis, pre-emergence, 240 h
In short: as §3

large (Lg) crabgrass [4] = assay: Test C postemergence; type: in vivo, Digitaria sanguinalis; details: Digitaria sanguinalis, post-emergence
In short: as §2

barnyardgrass [5] = assay: Test C postemergence; type: in vivo, Echinochloa crus-galli; details: Echinochloa crus-galli, post-emergence
In short: as §2

pigweed = assay: Test A postemergence; type: in vivo, Amaranthus retroflexus; details: Amaranthus retroflexus, post-emergence
In short: as §3

lambsquarters = assay: Test C postemergence; type: in vivo, Chenopodium album; details: Chenopodium album, post-emergence
In short: as §2

barnyardgrass [6] = assay: Test A postemergence; type: in vivo, Echinochloa crus-galli; details: Echinochloa crus-galli, post-emergence, 240 h
In short: as §3

[7] = 125 g ai/ha, 0 to 100 scale where 0 is no effect and 100 is complete control, read-out: Plant response rating, Barnyardgrass

## N#Cc1cccc(Oc2ncc(Cl)cn2)c1-n1cc(Br)cn1 [Compound 52, 2-(4-bromo-1H-pyrazol-1-yl)-3-[(5-chloro-2-pyrimidinyl)oxy]benzonitrile]
Barnyardgrass [1]
  pest or weed control at 250 g/ha: 30%
chickweed; 125 g ai/ha, postemergence, read-out: Plant response rating (0 to 100), Chickweed
  pest or weed control at 125 g/ha: 90%
chickweed; 250 g ai/ha, postemergence, read-out: Plant response rating (0 to 100), Chickweed
  pest or weed control at 250 g/ha: 95%
chickweed; Postemergence, 31 g ai/ha, scale 0 to 100 (0 no effect, 100 complete control), 13 to 15 days, read-out: Plant response rating, Chickweed
  pest or weed control at 31 g/ha: 40%
chickweed; Postemergence, 62 g ai/ha, scale 0 to 100 (0 no effect, 100 complete control), read-out: Plant response rating, Chickweed
  pest or weed control at 62 g/ha: 60%
sedge, umbrella
  pest or weed control at 250 g/ha: 95%
Barnyardgrass [2]; [7]
  pest or weed control at 125 g/ha: 90%
Barnyardgrass [2]; 500 g ai/ha, 0 to 100 scale, 0 no effect, 100 complete control, approx. 10 days, read-out: Barnyardgrass plant response rating
  pest or weed control at 500 g/ha: 100%
morningglory; 125 g ai/ha, postemergence, read-out: Plant response rating (0 to 100), Morningglory
  pest or weed control at 125 g/ha: 95%
morningglory; 250 g ai/ha, postemergence, read-out: Plant response rating (0 to 100), Morningglory
  pest or weed control at 250 g/ha: 100%
morningglory; Postemergence, 31 g ai/ha, scale 0 to 100 (0 no effect, 100 complete control), 13 to 15 days, read-out: Plant response rating, Morningglory
  pest or weed control at 31 g/ha: 80%
morningglory; Postemergence, 62 g ai/ha, scale 0 to 100 (0 no effect, 100 complete control), read-out: Plant response rating, Morningglory
  pest or weed control at 62 g/ha: 80%
Giant foxtail; 125 g ai/ha, postemergence, read-out: Plant response rating (0 to 100), Foxtail, Giant
  pest or weed control at 125 g/ha: 70%
Giant foxtail; 250 g ai/ha, postemergence, read-out: Plant response rating (0 to 100), Foxtail, Giant
  pest or weed control at 250 g/ha: 70%
Giant foxtail; Postemergence, 31 g ai/ha, scale 0 to 100 (0 no effect, 100 complete control), 13 to 15 days, read-out: Plant response rating, Foxtail, Giant
  pest or weed control at 31 g/ha: 45%
Giant foxtail; Postemergence, 62 g ai/ha, scale 0 to 100 (0 no effect, 100 complete control), read-out: Plant response rating, Foxtail, Giant
  pest or weed control at 62 g/ha: 50%
Wild oat; 125 g ai/ha, postemergence, read-out: Plant response rating (0 to 100), Oat, Wild
  pest or weed control at 125 g/ha: 10%
Wild oat; 250 g ai/ha, postemergence, read-out: Plant response rating (0 to 100), Oat, Wild
  pest or weed control at 250 g/ha: 15%
Wild oat; Postemergence, 31 g ai/ha, scale 0 to 100 (0 no effect, 100 complete control), 13 to 15 days, read-out: Plant response rating, Oat, Wild
  pest or weed control at 31 g/ha: 0%
Wild oat; Postemergence, 62 g ai/ha, scale 0 to 100 (0 no effect, 100 complete control), read-out: Plant response rating, Oat, Wild
  pest or weed control at 62 g/ha: 5%
rice
  plant injury at 250 g/ha: 20%
Yellow nutsedge; 125 g ai/ha, postemergence, read-out: Plant response rating (0 to 100), Nutsedge, Yellow
  pest or weed control at 125 g/ha: 5%
Yellow nutsedge; 250 g ai/ha, postemergence, read-out: Plant response rating (0 to 100), Nutsedge, Yellow
  pest or weed control at 250 g/ha: 30%
Yellow nutsedge; Postemergence, 31 g ai/ha, scale 0 to 100 (0 no effect, 100 complete control), 13 to 15 days, read-out: Plant response rating, Nutsedge, Yellow
  pest or weed control at 31 g/ha: 0%
Yellow nutsedge; Postemergence, 62 g ai/ha, scale 0 to 100 (0 no effect, 100 complete control), read-out: Plant response rating, Nutsedge, Yellow
  pest or weed control at 62 g/ha: 5%
Large (Lg) crabgrass [3]; 125 g ai/ha, 0 to 100 scale where 0 is no effect and 100 is complete control, read-out: Plant response rating, Crabgrass, Large
  pest or weed control at 125 g/ha: 100%
Large (Lg) crabgrass [3]; 500 g ai/ha, 0 to 100 scale, 0 no effect, 100 complete control, approx. 10 days, read-out: Crabgrass, Large plant response rating
  pest or weed control at 500 g/ha: 100%
Large (Lg) crabgrass [4]; 125 g ai/ha, postemergence, read-out: Plant response rating (0 to 100), Crabgrass, Large
  pest or weed control at 125 g/ha: 20%
Large (Lg) crabgrass [4]; 250 g ai/ha, postemergence, read-out: Plant response rating (0 to 100), Crabgrass, Large
  pest or weed control at 250 g/ha: 40%
Large (Lg) crabgrass [4]; Postemergence, 31 g ai/ha, scale 0 to 100 (0 no effect, 100 complete control), 13 to 15 days, read-out: Plant response rating, Crabgrass, Large
  pest or weed control at 31 g/ha: 5%
Large (Lg) crabgrass [4]; Postemergence, 62 g ai/ha, scale 0 to 100 (0 no effect, 100 complete control), read-out: Plant response rating, Crabgrass, Large
  pest or weed control at 62 g/ha: 15%
Barnyardgrass [5]; 125 g ai/ha, postemergence, read-out: Plant response rating (0 to 100), Barnyardgrass
  pest or weed control at 125 g/ha: 5%
Barnyardgrass [5]; 250 g ai/ha, postemergence, read-out: Plant response rating (0 to 100), Barnyardgrass
  pest or weed control at 250 g/ha: 10%
Barnyardgrass [5]; Postemergence, 31 g ai/ha, scale 0 to 100 (0 no effect, 100 complete control), 13 to 15 days, read-out: Plant response rating, Barnyardgrass
  pest or weed control at 31 g/ha: 0%
Barnyardgrass [5]; Postemergence, 62 g ai/ha, scale 0 to 100 (0 no effect, 100 complete control), read-out: Plant response rating, Barnyardgrass
  pest or weed control at 62 g/ha: 5%
pigweed; 125 g ai/ha, 0 to 100 scale where 0 is no effect and 100 is complete control, read-out: Plant response rating, Pigweed
  pest or weed control at 125 g/ha: 100%
pigweed; 240 h, 500 g ai/ha, 0 to 100 scale, 0 no effect, 100 complete control, read-out: Plant response rating Pigweed
  pest or weed control at 500 g/ha: 100%
lambsquarters; 125 g ai/ha, postemergence, read-out: Plant response rating (0 to 100), Lambsquarters
  pest or weed control at 125 g/ha: 90%
lambsquarters; 250 g ai/ha, postemergence, read-out: Plant response rating (0 to 100), Lambsquarters
  pest or weed control at 250 g/ha: 100%
lambsquarters; Postemergence, 31 g ai/ha, scale 0 to 100 (0 no effect, 100 complete control), 13 to 15 days, read-out: Plant response rating, Lambsquarters
  pest or weed control at 31 g/ha: 85%
lambsquarters; Postemergence, 62 g ai/ha, scale 0 to 100 (0 no effect, 100 complete control), read-out: Plant response rating, Lambsquarters
  pest or weed control at 62 g/ha: 90%
Barnyardgrass [6]; [7]
  pest or weed control at 125 g/ha: 90%
Barnyardgrass [6]; 500 g ai/ha, 0 to 100 scale, 0 no effect, 100 complete control, read-out: Plant response rating Barnyardgrass
  pest or weed control at 500 g/ha: 100%
